Molecular target: T1, chimeric human H3 receptor (Homo sapiens, UniProt Q9Y5N1)
T1 construct: rat Galpha-i2 (Gnai2, rat); made in house; host or cells: Sf9 insect cells (baculovirus); P2 membranes
Experiment: Chimeric human H3 receptor GTP binding assay (agonist-stimulated GTP-gamma35S binding, Example 7)
Format: biochemical
Conditions: P2 membranes of Sf9 cells, 1 μM histamine as agonist, Ki from IC50 by Cheng-Prusoff; read-out: Ki
Description: This Example illustrates a representative assay for evaluating agonist-stimulated GTP-gamma^35S binding (“GTP binding”) activity. […] This agonist-stimulated GTP binding activity can also be used to detect partial agonism mediated by antagonist compounds. A compound analyzed in this assay is referred to herein as a “test compound.”
Four independent baculoviral stocks (one directing the expression of the chimeric human H3 receptor and three directing the expression of each of the three subunits of a heterotrimeric G-protein) are used to infect a culture of Sƒ9 cells as described above. P2 membranes are prepared as described above, and agonist-stimulated GTP binding on the P2 membranes is assessed using histamine (Sigma Chemical Co., St. Louis, Mo.) as agonist in order to ascertain that the receptor/G-protein-alpha-beta-gamma combination(s) yield a functional response as measured by GTP binding. P2 membranes are resuspended by Dounce homogenization (tight pestle) in GTP binding assay buffer (50 mM Tris pH 7.4, 120 mM NaCl, 5 mM MgCl2, 2 mM EGTA, 1 mg/ml BSA, 0.2 mg/ml bacitracin, 0.02 mg/ml aprotinin, 0.01 mg/ml saponin, 10 μM GDP) and added to assay tubes at a concentration of 35 μg protein/reaction tube. After adding increasing doses of histamine at concentrations ranging from 10-12 M to 10^−5 M, reactions are initiated by the addition of 125 pM GTP-gamma^35S (PERKIN ELMER; Boston, Mass.) with a final assay volume of 0.20 ml. In competition experiments, non-radiolabeled test compounds are added to separate reactions at concentrations ranging from 10^−10 M to 10^−6 M along with 1 μM histamine to yield a final volume of 0.20 ml.
Neutral antagonists are antagonists that are substantially free of inherent agonist activity, and include those test compounds that reduce the histamine-stimulated GTP binding activity towards, but not below, baseline levels. In contrast, in the absence of added histamine, inverse agonists reduce the GTP binding activity of the receptor-containing membranes below baseline.
After a 60-min incubation at room temperature, reactions are terminated by vacuum filtration over WHATMAN GF/C filters (pre-soaked in wash buffer, 0.1% BSA) followed by washing with ice-cold wash buffer (50 mM Tris pH 7.4, 120 mM NaCl). The amount of receptor-bound (and thereby membrane-bound) GTP-gamma^35S is determined by measuring the filter-bound radioactivity, preferably by liquid scintillation spectrometry of the washed filters. Non-specific binding is determined in parallel assays including 10 μM unlabeled GTP-gammaS and typically represents less than 5 percent of total binding. Data is expressed as percent above basal (baseline). The results of GTP binding experiments are analyzed using SIGMAPLOT software (SPSS Inc., Chicago, Ill.). IC50 values are calculated by non-linear regression analysis of dose-response curves using Kaleidograph (Synergy Software, Reading, Pa.).
Alternatively the data is analyzed as follows. First, the average bound radioactivity from negative control wells (no agonist) is subtracted from the bound radioactivity detected for each of the other experimental wells. Second, average bound radioactivity is calculated for the positive control wells (agonist wells). Then, percent inhibition for each compound tested is calculated using the equation: [formula]
Calculated IC50 values are converted to Ki values by the Cheng-Prusoff correction (Cheng and Prusoff (1973) Biochem. Pharmacol. 22(23):3099-3108). Accordingly, the following equation: Ki=IC50/(1+[L]/EC50) is used, where [L] is the histamine concentration in the GTP binding assay, and EC50 is the concentration of histamine producing a 50% response, as determined by a dose-response analysis using concentrations of histamine ranging from 10^−10 M to 10^−6 M. […]

T1 sequence (Q9Y5N1 with tags, fused parts or gaps): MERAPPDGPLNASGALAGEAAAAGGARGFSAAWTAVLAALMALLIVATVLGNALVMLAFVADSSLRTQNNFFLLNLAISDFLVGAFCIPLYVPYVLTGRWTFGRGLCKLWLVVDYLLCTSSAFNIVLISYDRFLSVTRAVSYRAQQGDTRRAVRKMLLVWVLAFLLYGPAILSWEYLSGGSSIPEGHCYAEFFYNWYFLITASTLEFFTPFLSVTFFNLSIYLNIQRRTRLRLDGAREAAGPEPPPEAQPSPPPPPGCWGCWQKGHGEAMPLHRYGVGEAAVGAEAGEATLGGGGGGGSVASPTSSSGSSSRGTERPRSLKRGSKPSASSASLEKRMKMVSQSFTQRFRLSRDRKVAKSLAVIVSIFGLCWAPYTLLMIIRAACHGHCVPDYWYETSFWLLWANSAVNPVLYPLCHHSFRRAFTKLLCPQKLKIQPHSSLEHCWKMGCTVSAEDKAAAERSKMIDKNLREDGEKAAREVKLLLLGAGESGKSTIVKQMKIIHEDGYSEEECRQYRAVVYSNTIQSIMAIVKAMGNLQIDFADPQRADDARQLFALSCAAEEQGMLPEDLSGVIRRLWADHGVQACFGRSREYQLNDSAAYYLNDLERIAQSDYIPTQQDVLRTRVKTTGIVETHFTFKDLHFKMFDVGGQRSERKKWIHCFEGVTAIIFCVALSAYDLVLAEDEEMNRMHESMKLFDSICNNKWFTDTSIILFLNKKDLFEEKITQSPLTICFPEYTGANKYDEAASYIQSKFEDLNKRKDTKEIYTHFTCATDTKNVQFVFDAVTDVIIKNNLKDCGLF

Row | Compound | Ki
1 | c1ccc(CN2CCc3ncnc(N4CCN(C5CCC5)CC4)c3CC2)cc1 [Compound 142, 7-benzyl-4-(4-cyclobutylpiperazin-1-yl)-6,7,8,9-tetrahydro-5H-pyrimido[4,5-d]azepine] | < 1000 nM
2 | c1nc2c(c(N3CCN(C4CCC4)CC3)n1)CCNCC2 [Compound 144, 4-(4-cyclobutylpiperazin-1-yl)-6,7,8,9-tetrahydro-5H-pyrimido[4,5-d]azepine] | < 1000 nM
3 | CNC(=O)c1ccc(N2CCc3nc(N4CCN(C5CCC5)CC4)ncc3C2)nc1 [Compound 648, 6-[2-(4-cyclobutylpiperazin-1-yl)-7,8-dihydropyrido[4,3-d]pyrimidin-6(5H)-yl]-N-methylnicotinamide] | < 1000 nM
4 | CCN1CCc2nc(N3CCN(C4CCC4)CC3)ncc2C1 [Compound 606, 2-(4-cyclobutylpiperazin-1-yl)-6-ethyl-5,6,7,8-tetrahydropyrido[4,3-d]pyrimidine] | < 1000 nM
5 | CC(=O)N1CCc2nc(N3CCN(C4CCC4)CC3)ncc2C1 [Compound 608, 6-acetyl-2-(4-cyclobutylpiperazin-1-yl)-5,6,7,8-tetrahydropyrido[4,3-d]pyrimidine] | < 1000 nM

Same assay, conditions: P2 membranes of Sf9 cells, 1 μM histamine as agonist; read-out: Ki in the assay of Example 7

Row | Compound | Ki
6 | O=C(c1ccccc1)N1CCc2ncnc(N3CCN(C4CCC4)CC3)c2CC1 [Compound 8, [4-(4-Cyclobutyl-piperazin-1-yl)-5,6,8,9-tetrahydro-pyrimido[4,5-d]azepin-7-yl]-phenyl-methanone] | < 1000 nM
7 | c1nc(N2CCN(C3CCC3)CC2)nc2c1CCN(CC1CCCCC1)CC2 [Compound 9, 2-(4-Cyclobutyl-piperazin-1-yl)-7-cyclohexylmethyl-6,7,8,9-tetrahydro-5H-pyrimido[4.5-d]azepine] | < 1000 nM
8 | CC(=O)c1ccc(N2CCc3nc(N4CCN(C5CCC5)CC4)ncc3C2)cc1 [Compound 5, 1-{4-[2-(4-Cyclobutyl-piperazin-1-yl)-7,8-dihydro-5H-pyrido[4,3-d]pyrimidin-6-yl]-phenyl}-ethanone] | < 1000 nM
9 | CC(=O)c1ccc(N2CCc3ncnc(N4CCN(C5CCC5)CC4)c3CC2)cc1 [Compound 7, 1-{4-[4-(4-Cyclobutyl-piperazin-1-yl)-5,6,8,9-tetrahydro-pyrimido[4,5-d]azepin-7-yl]-phenyl}-ethanone] | < 1000 nM

Same assay, conditions: assay of Example 7; symbol "*" in column headed Ki; read-out: Ki

Row | Compound | Ki
10 | CCN1CCN(c2ncc3c(n2)CCN(CC2CCOCC2)CC3)CC1 [Compound 598, 2-(4-ethylpiperazin-1-yl)-7-(tetrahydro-2H-pyran-4-ylmethyl)-6,7,8,9-tetrahydro-5H-pyrimido[4,5-d]azepine] | < 1000 nM
11 | O=C(c1ccccc1)N1CCc2cnc(N3CCN(C4CCC4)CC3)nc2CC1 [Compound 183, 7-benzoyl-2-(4-cyclobutylpiperazin-1-yl)-6,7,8,9-tetrahydro-5H-pyrimido[4,5-d]azepine] | < 1000 nM
12 | CC1CCC[C@@H]2CN(c3ncc4c(n3)CCN(C3CCC3)CC4)CCN12 (stereo partly shown) [Compound 596, 7-cyclobutyl-2-(6-methyloctahydro-2H-pyrido[1,2-a]pyrazin-2-yl)-6,7,8,9-tetrahydro-5H-pyrimido[4,5-d]azepine] | < 1000 nM
13 | FC(F)(F)CN1CCN(c2ncc3c(n2)CCN(C2CCC2)CC3)CC1 [Compound 602, 7-cyclobutyl-2-[4-(2,2,2-trifluoroethyl)piperazin-1-yl]-6,7,8,9-tetrahydro-5H-pyrimido[4,5-d]azepine] | < 1000 nM
14 | FC1(F)CCC(CN2CCc3cnc(N4CCN(C5CCC5)CC4)nc3CC2)CC1 [Compound 594, 2-(4-cyclobutylpiperazin-1-yl)-7-[(4,4-difluorocyclohexyl)methyl]-6,7,8,9-tetrahydro-5H-pyrimido[4,5-d]azepine] | < 1000 nM

Molecular target: T1, chimeric human H3 receptor
Experiment: Chimeric human H3 receptor screening GTP binding assay (inhibition of histamine-stimulated GTP-gamma35S binding, Example 8)
Format: biochemical
Conditions: 1 h; assay described in Example 8; symbol "!" in column headed Ki; read-out: Ki ("!": percent inhibition of agonist-induced GTP-gammaS binding to H3)
How it was run: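 Sf9 membranes co-expressing chimeric human H3 receptor and heterotrimeric G-protein (35 μg protein) incubated 60 min at room temperature with 4 μM compound, 1 μM histamine and 125 pM GTP-gamma35S in pH 7.4 buffer with 10 μM GDP. Filter-bound radioactivity, nonspecific (10 μM GTP-gammaS) subtracted, reported as % inhibition of histamine signal.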

Row | Compound | inhibition at 4 µM
15 | O=C(/C=C/c1ccc2c(c1)OCO2)N1CCc2cnc(N3CCN(C4CCC4)CC3)nc2CC1 [Compound 567, 7-[(2E)-3-(1,3-benzodioxol-5-yl)prop-2-enoyl]-2-(4-cyclobutylpiperazin-1-yl)-6,7,8,9-tetrahydro-5H-pyrimido[4,5-d]azepine] | ≥ 90%
16 | O=C(c1cncc(C#Cc2ccccc2)c1)N1CCc2cnc(N3CCN(C4CCC4)CC3)nc2CC1 [Compound 475, 2-(4-cyclobutylpiperazin-1-yl)-7-{[5-(phenylethynyl)pyridin-3-yl]carbonyl}-6,7,8,9-tetrahydro-5H-pyrimido[4,5-d]azepine] | ≥ 90%

Same assay, conditions: 1 h; assay of Example 8; symbol "!" in column headed Ki; read-out: percent inhibition of agonist-induced GTP-gammaS binding to H3

Row | Compound | inhibition at 4 µM
17 | CCCc1ccc(C(=O)N2CCc3cnc(N4CCN(C5CCC5)CC4)nc3CC2)cc1 [Compound 362, 2-(4-cyclobutylpiperazin-1-yl)-7-(4-propylbenzoyl)-6,7,8,9-tetrahydro-5H-pyrimido[4,5-d]azepine] | ≥ 90%
18 | O=C(/C=C/c1ccccc1Br)N1CCc2cnc(N3CCN(C4CCC4)CC3)nc2CC1 [Compound 582, 7-[(2E)-3-(2-bromophenyl)prop-2-enoyl]-2-(4-cyclobutylpiperazin-1-yl)-6,7,8,9-tetrahydro-5H-pyrimido[4,5-d]azepine] | ≥ 90%
19 | O=C(Cc1c(F)cccc1F)N1CCc2cnc(N3CCN(C4CCC4)CC3)nc2CC1 [Compound 291, 2-(4-cyclobutylpiperazin-1-yl)-7-[(2,6-difluorophenyl)acetyl]-6,7,8,9-tetrahydro-5H-pyrimido[4,5-d]azepine] | ≥ 90%
20 | CCCCCN1CCc2cnc(N3CCN(C4CCC4)CC3)nc2CC1 [Compound 249, 2-(4-cyclobutylpiperazin-1-yl)-7-pentyl-6,7,8,9-tetrahydro-5H-pyrimido[4,5-d]azepine] | ≥ 90%
21 | CCn1nc(C)cc1C(=O)N1CCc2cnc(N3CCN(C4CCC4)CC3)nc2CC1 [Compound 204, 2-(4-cyclobutylpiperazin-1-yl)-7-[(1-ethyl-3-methyl-1H-pyrazol-5-yl)carbonyl]-6,7,8,9-tetrahydro-5H-pyrimido[4,5-d]azepine] | ≥ 90%
22 | O=C(Cc1cccc(OC(F)(F)F)c1)N1CCc2cnc(N3CCN(C4CCC4)CC3)nc2CC1 [Compound 279, 2-(4-cyclobutylpiperazin-1-yl)-7-{[3-(trifluoromethoxy)phenyl]acetyl}-6,7,8,9-tetrahydro-5H-pyrimido[4,5-d]azepine] | ≥ 90%

Same assay, conditions: symbol ! in Ki; test compound 4 μM, 1 μM histamine; read-out: percent inhibition of agonist-induced GTP-gammaS binding to H3

Row | Compound | inhibition at 4 µM
23 | Cc1ccc(C)c(C(=O)N2CCc3c(ncnc3N3CCN(C4CCC4)CC3)C2)c1 [Compound 64, 4-(4-cyclobutylpiperazin-1-yl)-7-(2,5-dimethylbenzoyl)-5,6,7,8-tetrahydropyrido[3,4-d]pyrimidine] | ≥ 90%
24 | CC(C1CCCCC1)N1CCc2c(ncnc2N2CCN(C3CCC3)CC2)C1 (stereo not shown) [Compound 126, 4-(4-cyclobutylpiperazin-1-yl)-7-(1-cyclohexylethyl)-5,6,7,8-tetrahydropyrido[3,4-d]pyrimidine] | ≥ 90%
25 | CC(c1ccccc1F)N1CCc2c(ncnc2N2CCN(C3CCC3)CC2)C1 (stereo not shown) [Compound 102, 4-(4-cyclobutylpiperazin-1-yl)-7-[1-(2-fluorophenyl)ethyl]-5,6,7,8-tetrahydropyrido[3,4-d]pyrimidine] | ≥ 90%
